Measured values from patent publication US20240174647A1 (NEURON23, INC., priority 2022, published 2024).

What follows are molecules tested against wt human LRRK2, catalytic site (Homo sapiens (Human), UniProt Q5S007) (assay: TR-FRET LanthaScreen Tb Kinase Activity Assay (LRRK2 kinase inhibition)). Conditions: 2 nM wt human LRRK2, 400 nM fluorescein-ERM (LRRKtide) peptide, 38 μM ATP, 120 minutes at room temperature.
Assay type: biochemical
Summary of the method: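 LanthaScreen TR-FRET with 2 nM wt human LRRK2 catalytic site, 400 nM fluorescein-ERM (LRRKtide) peptide and 38 µM ATP in Kinase Buffer A; 120 min at room temperature. Phosphorylation detected with EDTA and Tb-anti-pLRRKtide after 60 min; IC50 from emission ratios.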

Sequence of wt human LRRK2, catalytic site (Q5S007 1879-2138): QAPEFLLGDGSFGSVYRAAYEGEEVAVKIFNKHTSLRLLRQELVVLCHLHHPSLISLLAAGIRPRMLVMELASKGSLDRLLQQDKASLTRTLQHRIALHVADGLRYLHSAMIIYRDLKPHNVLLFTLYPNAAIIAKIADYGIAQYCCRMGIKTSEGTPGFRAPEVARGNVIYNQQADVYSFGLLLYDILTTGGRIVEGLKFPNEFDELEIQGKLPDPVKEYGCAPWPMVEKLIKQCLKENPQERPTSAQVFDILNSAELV

SMILES | IC50
CS(=O)(=O)CCn1ncc2c(Nc3ncc(C(F)(F)F)c(NC4CCC4)n3)cccc21 [Example 163, N^4-cyclobutyl-N^2-(1-(2-(methylsulfonyl)ethyl)-1H-indazol-4-yl)-5-(trifluoromethyl)pyrimidine-2,4-diamine] | < 50 nM
CCNc1nc(Nc2cccc3c2cnn3CC(C)(C)O)ncc1C(F)(F)F [Example 164, 1-[4-[[4-(ethylamino)-5-(trifluoromethyl)pyrimidin-2-yl]amino]indazol-1-yl]-2-methyl-propan-2-ol] | < 50 nM
CCOc1nc(Nc2cccc3c2cnn3CC(F)F)nc2[nH]cc(Cl)c12 [Example 165, 5-chloro-N-[1-(2,2-difluoroethyl)indazol-4-yl]-4-ethoxy-7H-pyrrolo[2,3-d]pyrimidin-2-amine] | < 50 nM
C[C@@]1(n2ncc3c(Nc4ncc(C(F)(F)F)c(NC5CC5)n4)cccc32)CCOC1=O [Example 166, (R)-3-(4-((4-(cyclopropylamino)-5-(trifluoromethyl)pyrimidin-2-yl)amino)-1H-indazol-1-yl)-3-methyldihydrofuran-2(3H)-one] | < 50 nM
C[C@]1(n2ncc3c(Nc4ncc(C(F)(F)F)c(NC5CC5)n4)cccc32)CCOC1=O [Example 167, (S)-3-(4-((4-(cyclopropylamino)-5-(trifluoromethyl)pyrimidin-2-yl)amino)-1H-indazol-1-yl)-3-methyldihydrofuran-2(3H)-one] | < 50 nM
FC(F)(F)c1cnc(Nc2cccc3c2cnn3CC2CC2)nc1NC1CC1 [Example 168, N^4-cyclopropyl-N^2-(1-(cyclopropylmethyl)-1H-indazol-4-yl)-5-(trifluoromethyl)pyrimidine-2,4-diamine] | < 50 nM
CC(C)n1ncc2c(Nc3ncc(C(F)(F)F)c(NC4CC4)n3)cccc21 [Example 169, N4-cyclopropyl-N2-(1-isopropyl-1H-indazol-4-yl)-5-(trifluoromethyl)pyrimidine-2,4-diamine] | < 50 nM
O=S(=O)(CCn1ncc2c(Nc3ncc(C(F)(F)F)c(NC4CC4)n3)cccc21)C1CC1 [Example 170, N^4-cyclopropyl-N^2-(1-(2-(cyclopropylsulfonyl)ethyl)-1H-indazol-4-yl)-5-(trifluoromethyl)pyrimidine-2,4-diamine] | < 50 nM
CCS(=O)(=O)CCn1ncc2c(Nc3ncc(C(F)(F)F)c(NC4CC4)n3)cccc21 [Example 171, N^4-cyclopropyl-N^2-(1-(2-(ethylsulfonyl)ethyl)-1H-indazol-4-yl)-5-(trifluoromethyl)pyrimidine-2,4-diamine] | < 50 nM
CC(C)(O)Cn1ncc2c(Nc3ncc(C(F)(F)F)c(NC4CC4)n3)ccc(F)c21 [Example 172, 1-(4-((4-(cyclopropylamino)-5-(trifluoromethyl)pyrimidin-2-yl)amino)-7-fluoro-1H-indazol-1-yl)-2-methylpropan-2-ol] | < 50 nM
CC(C)(O)Cn1ncc2c(Nc3ncc(C(F)F)c(NC4CC4)n3)cccc21 [Example 173, 1-[4-[[4-(cyclopropylamino)-5-(difluoromethyl)pyrimidin-2-yl]amino]indazol-1-yl]-2-methyl-propan-2-ol] | < 50 nM
Cc1ccc(Nc2ncc(C(F)(F)F)c(NC3CC3)n2)c2cnn(CCS(C)(=O)=O)c12 [Example 174, N4-cyclopropyl-N2-(7-methyl-1-(2-(methylsulfonyl)ethyl)-1H-indazol-4-yl)-5-(trifluoromethyl)pyrimidine-2,4-diamine] | < 50 nM
CC(C)(O)Cn1ncc2c(Nc3ncc(C(F)F)c(NC4CC4)n3)ccc(F)c21 [Example 175, 1-[4-[[4-(cyclopropylamino)-5-(difluoromethyl)pyrimidin-2-yl]amino]-7-fluoro-indazol-1-yl]-2-methyl-propan-2-ol] | < 50 nM
CCNc1nc(Nc2cccc3c2cnn3CC(C)(C)O)nc2[nH]cc(Cl)c12 [Example 176, 1-[4-[[5-chloro-4-(ethylamino)-7H-pyrrolo[2,3-d]pyrimidin-2-yl]amino]indazol-1-yl]-2-methyl-propan-2-ol] | < 50 nM
